Our source for the IC50 values is patent US11673890B2, “N1-pyrazolospiroketone acetyl-CoA carboxylase inhibitors” (Pfizer Inc., priority 2010, dated 2023).

The target in experiment [1] is T1, recombinant human ACC1 (rhACC1) (Homo sapiens, UniProt Q13085, DEL44-44).
T1 construct: infected with recombinant baculovirus containing full length human ACC1 cDNA; made in house; host or cells: SF9 insect cells (baculovirus)
The experiment is described as follows: recombinant hACC1 Transcreener assay (ADP detection FP). Type of experiment: biochemical. As for the experimental part: For example direct inhibition of ACC activity, for the compound of Formula (1) was determined using preparations of recombinant human ACC1 (rhACC1) and recombinant human ACC2 (rhACC2).
[1] Preparation of rhACC1. Two liters of SF9 cells, infected with recombinant baculovirus containing full length human ACC1 cDNA, were suspended in ice-cold lysis buffer (25 mM Tris, pH 7.5; 150 mM NaCl; 10% glycerol; 5 mM imidazole (EMD Bioscience; Gibbstown, N.J.); 2 mM TCEP (BioVectra; Charlottetown, Canada); Benzonase nuclease (10000 U/100 g cell paste; Novagen; Madison, Wis.); EDTA-free protease inhibitor cocktail (1 tab/50 mL; Roche Diagnostics; Mannheim, Germany). Cells were lysed by 3 cycles of freeze-thaw and centrifuged at 40,000×g for 40 minutes (4° C.). Supernatant was directly loaded onto a HisTrap FF crude column (GE Healthcare; Piscataway, N.J.) and eluted with an imidazole gradient up to 0.5 M over 20 column volumes (CV). ACC1-containing fractions were pooled and diluted 1:5 with 25 mM Tris, pH 7.5, 2 mM TCEP, 10% glycerol and direct loaded onto a CaptoQ (GE Healthcare) column and eluted with an NaCl gradient up to 1 M over 20 CV's. Phosphate groups were removed from purified ACC1 by incubation with lambda phosphatase (100 U/10 μM target protein; New England Biolabs; Beverly, Mass.) for 14 hours at 4° C.; okadaic acid was added (1 μM final concentration; Roche Diagnostics) to inhibit the phosphatase. Purified ACC1 was exchanged into 25 mM Tris, pH 7.5, 2 mM TCEP, 10% glycerol, 0.5 M NaCl by 6 hour dialysis at 4° C. Aliquots were prepared and frozen at −80° C.
[2] […] The final conditions for the assay were 50 mM HEPES, pH 7.2, 10 mM MgCl2, 7.5 mM tripotassium citrate, 2 mM DTT, 0.1 mg/mL BSA, 30 μM acetyl-CoA, 50 μM ATP, and 10 mM KHCO3. Typically, a 10 μl reaction was run for 120 min at 25° C., and 10 μl of Transcreener stop and detect buffer was added and the combination incubated at room temp for an additional 1 hour.
All of the examples in both assays were run with a minimum of n=3.

Experiment [2] deals with T2, recombinant human ACC2 (rhACC2) (Homo sapiens, UniProt O00763, V2141I).
T2 construct: a full length Cytomax clone of ACC2 was purchased from Cambridge Bioscience Limited; made in house; host or cells: CHO cells (tetracycline-inducible, pcDNA5 FRT TO-TOPO)
The experiment is described as follows: recombinant hACC2 Transcreener assay (ADP detection FP). The settings on record: 50 μM ATP, minimum of n=3. Type of experiment: biochemical. The method, then: For example direct inhibition of ACC activity, for the compound of Formula (1) was determined using preparations of recombinant human ACC1 (rhACC1) and recombinant human ACC2 (rhACC2). Representative sequences of the recombinant human ACC1 and ACC2 that can be used in the assay are provided in FIG. 1 (SEQ ID NO. 1) and FIG. 2 (SEQ. ID NO. 2), respectively.
[3] Preparation of rhACC2. Human ACC2 inhibition was measured using purified recombinant human ACC2 (hrACC2). Briefly, a full length Cytomax clone of ACC2 was purchased from Cambridge Bioscience Limited and was sequenced and subcloned into PCDNA5 FRT TO-TOPO (Invitrogen, Carlsbad, Calif.). The ACC2 was expressed in CHO cells by tetracycline induction and harvested in 5 liters of DMEM/F12 with glutamine, biotin, hygromycin and blasticidin with 1 μg/mL tetracycline (Invitrogen, Carlsbad, Calif.). The conditioned medium containing ACC2 was then applied to a Softlink Soft Release Avidin column (Promega, Madison, Wis.) and eluted with 5 mM biotin. 4 mgs of ACC2 were eluted at a concentration of 0.05 mg/mL (determined by A280) with an estimated purity of 95% ([…]). The purified ACC2 was dialyzed in 50 mM Tris, 200 mM NaCl, 4 mM DTT, 2 mM EDTA, and 5% glycerol. The pooled protein was frozen and stored at −80° C., with no loss of activity upon thawing. For measurement of ACC2 activity and assessment of ACC2 inhibition, test compounds were dissolved in DMSO and added to the rhACC2 enzyme as a 5× stock with a final DMSO concentration of 1%.
[4] Measurement of human ACC2 inhibition. hACC2 was assayed in a Costar #3676 (Costar, Cambridge, Mass.) 384-well plate using the Transcreener ADP detection FP assay kit (Bellbrook Labs, Madison, Wis.) using the manufacturer's recommended conditions for a 50 uM ATP reaction. The final conditions for the assay were 50 mM HEPES, pH 7.2, 5 mM MgCl2, 5 mM tripotassium citrate, 2 mM DTT, 0.1 mg/mL BSA, 30 μM acetyl-CoA, 50 μM ATP, and 8 mM KHCO3. Typically, a 10 μl reaction was run for 50 min at 25° C., and 10 μl of Transcreener stop and detect buffer was added and the combination incubated at room temp for an additional 1 hour. The data was acquired on an Envision Fluorescence reader (Perkinelmer) using a 620 excitation Cy5 FP general dual mirror, 620 excitation Cy5 FP filter, 688 emission (S) and a 688 (P) emission filter.
The results using the recombinant hACC1 and recombinant hACC2 Transcreener assays described above are summarized in the table below for the Compounds of Formula (I) exemplified in the Examples above. All of the examples in both assays were run with a minimum of n=3.

Setting [3] is: recombinant hACC1 Transcreener assay, 50 μM ATP, minimum of n=3, read-out: hACC1.

Where two headings read alike, the source gives them in different places.

T2 sequence (O00763 whole entry V2141I): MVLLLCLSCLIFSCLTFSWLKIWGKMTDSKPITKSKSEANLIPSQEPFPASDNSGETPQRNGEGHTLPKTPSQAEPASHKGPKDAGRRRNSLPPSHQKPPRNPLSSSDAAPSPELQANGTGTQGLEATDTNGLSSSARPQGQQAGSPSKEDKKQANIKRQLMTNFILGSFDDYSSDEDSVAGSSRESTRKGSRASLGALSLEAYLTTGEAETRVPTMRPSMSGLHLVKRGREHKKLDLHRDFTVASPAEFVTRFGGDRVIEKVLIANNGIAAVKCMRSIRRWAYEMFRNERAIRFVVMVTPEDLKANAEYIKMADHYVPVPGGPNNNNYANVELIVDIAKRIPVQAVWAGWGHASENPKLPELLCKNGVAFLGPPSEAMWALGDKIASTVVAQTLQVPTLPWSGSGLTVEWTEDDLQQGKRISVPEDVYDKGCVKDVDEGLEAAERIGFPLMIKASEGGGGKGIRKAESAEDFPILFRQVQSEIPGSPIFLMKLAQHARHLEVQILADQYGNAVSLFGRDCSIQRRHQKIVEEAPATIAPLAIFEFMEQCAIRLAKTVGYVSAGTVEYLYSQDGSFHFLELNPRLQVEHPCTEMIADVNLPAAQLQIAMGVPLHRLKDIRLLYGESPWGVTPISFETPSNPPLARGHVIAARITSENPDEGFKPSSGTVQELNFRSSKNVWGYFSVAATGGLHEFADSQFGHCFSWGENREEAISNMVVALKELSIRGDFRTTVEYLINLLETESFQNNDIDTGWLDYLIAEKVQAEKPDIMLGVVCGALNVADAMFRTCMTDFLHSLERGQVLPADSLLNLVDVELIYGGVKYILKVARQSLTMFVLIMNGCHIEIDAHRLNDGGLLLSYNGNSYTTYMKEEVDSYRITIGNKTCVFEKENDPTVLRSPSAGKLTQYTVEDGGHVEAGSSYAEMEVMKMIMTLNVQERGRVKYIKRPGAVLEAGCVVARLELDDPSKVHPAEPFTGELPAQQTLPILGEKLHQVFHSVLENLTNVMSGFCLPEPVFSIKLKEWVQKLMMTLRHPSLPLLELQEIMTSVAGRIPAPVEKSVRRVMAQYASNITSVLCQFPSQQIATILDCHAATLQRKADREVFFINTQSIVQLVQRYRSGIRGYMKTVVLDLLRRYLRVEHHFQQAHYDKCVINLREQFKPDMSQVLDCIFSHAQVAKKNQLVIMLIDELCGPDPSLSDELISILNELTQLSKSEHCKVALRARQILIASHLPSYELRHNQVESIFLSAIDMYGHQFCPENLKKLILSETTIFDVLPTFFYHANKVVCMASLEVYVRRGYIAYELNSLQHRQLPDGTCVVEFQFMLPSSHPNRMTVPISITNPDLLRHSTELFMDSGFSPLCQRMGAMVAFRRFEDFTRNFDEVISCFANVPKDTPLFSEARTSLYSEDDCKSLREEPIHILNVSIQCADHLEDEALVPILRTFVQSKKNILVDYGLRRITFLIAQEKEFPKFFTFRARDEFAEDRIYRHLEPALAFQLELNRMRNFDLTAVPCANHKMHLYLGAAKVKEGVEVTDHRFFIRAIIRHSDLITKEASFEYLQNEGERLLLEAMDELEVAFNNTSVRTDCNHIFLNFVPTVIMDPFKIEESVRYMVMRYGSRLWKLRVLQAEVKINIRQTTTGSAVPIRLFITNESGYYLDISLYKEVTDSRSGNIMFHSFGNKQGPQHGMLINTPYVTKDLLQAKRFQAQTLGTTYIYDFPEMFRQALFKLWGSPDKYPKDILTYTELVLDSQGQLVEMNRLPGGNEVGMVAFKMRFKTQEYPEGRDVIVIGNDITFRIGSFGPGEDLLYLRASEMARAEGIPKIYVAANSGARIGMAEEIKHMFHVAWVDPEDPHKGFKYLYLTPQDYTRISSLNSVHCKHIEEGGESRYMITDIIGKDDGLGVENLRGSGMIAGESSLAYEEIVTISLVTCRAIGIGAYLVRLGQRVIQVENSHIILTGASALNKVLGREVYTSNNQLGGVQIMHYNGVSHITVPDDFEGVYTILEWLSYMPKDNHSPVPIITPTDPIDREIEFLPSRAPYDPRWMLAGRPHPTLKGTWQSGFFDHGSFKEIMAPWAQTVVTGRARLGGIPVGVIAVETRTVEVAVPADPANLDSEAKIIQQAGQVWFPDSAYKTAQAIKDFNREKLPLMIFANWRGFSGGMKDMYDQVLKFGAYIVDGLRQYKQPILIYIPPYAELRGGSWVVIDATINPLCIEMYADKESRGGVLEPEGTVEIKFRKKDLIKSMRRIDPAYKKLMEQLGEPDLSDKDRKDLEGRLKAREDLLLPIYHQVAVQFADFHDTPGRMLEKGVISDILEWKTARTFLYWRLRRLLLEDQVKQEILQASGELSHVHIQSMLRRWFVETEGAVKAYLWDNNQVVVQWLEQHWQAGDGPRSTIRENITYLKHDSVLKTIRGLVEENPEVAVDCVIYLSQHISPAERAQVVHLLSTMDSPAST

Take `CC(C)n1ncc2c1C(=O)CC1(CCN(C(=O)c3cc(-c4ccc(C(=O)O)cc4)c4cc[nH]c4c3)CC1)C2` [Example 37, 4-{6-[(1-isopropyl-7-oxo-1,4,6,7-tetrahydro-1′H-spiro[indazole-5,4′-piperidin]-1′-yl)carbonyl]-1H-indol-4-yl}benzoic acid]: the IC50 was 6.6 nM in experiment [1] (setting [3]) and 3.2 nM in experiment [2].

For the molecule `CC(C)n1ncc2c1C(=O)CC1(CCN(C(=O)c3cc(-c4cccc(C(=O)O)c4)nc(N(C)C)c3)CC1)C2` [Example 32, 3-{6-(dimethylamino)-4-[(1-isopropyl-7-oxo-1,4,6,7-tetrahydro-1′H-spiro[indazole-5,4′-piperidin]-1′-yl)carbonyl]pyridin-2-yl}benzoic acid], the IC50 worked out at 31.8 nM in experiment [1] (setting [3]) and 12.5 nM in experiment [2].

Consider `CNc1nc(-c2ccc(C(=O)O)cc2)ccc1C(=O)N1CCC2(CC1)CC(=O)c1c(cnn1C(C)C)C2` [Example 8, 4-{5-[(1-isopropyl-7-oxo-1,4,6,7-tetrahydro-1′H-spiro[indazole-5,4′-piperidin]-1′-yl)carbonyl]-6-(methylamino)pyridin-2-yl}benzoic acid], for which the figures for the IC50 in experiment [1] (setting [3]) and in experiment [2] were 156 nM and 175 nM, respectively.

Take `CC(C)n1ncc2c1C(=O)CC1(CCN(C(=O)c3cc4c(-c5cccc(C(=O)O)c5)ncnc4[nH]3)CC1)C2` [Example 36, 3-{6-[(1-isopropyl-7-oxo-1,4,6,7-tetrahydro-1′H-spiro[indazole-5,4′-piperidin]-1′-yl)carbonyl]-7H-pyrrolo[2,3-d]pyrimidin-4-yl}benzoic acid]: the IC50 came to 44.4 nM in experiment [1] (setting [3]) and 29.3 nM in experiment [2].

Consider `COc1cc(C(=O)N2CCC3(CC2)CC(=O)c2c(cnn2C(C)C)C3)cc(-c2ccc(C(=O)O)cc2)n1` [Example 9, 4-{4-[(1-isopropyl-7-oxo-1,4,6,7-tetrahydro-1′H-spiro[indazole-5,4′-piperidin]-1′-yl)carbonyl]-6-methoxypyridin-2-yl}benzoic acid], for which the IC50 in experiment [1] stood at 30.9 nM; in experiment [2] it was 29.7 nM.

On to `CC(C)(C)n1ncc2c1C(=O)CC1(CCN(C(=O)c3cc4c(-c5ccc(C(=O)O)cc5)cccc4[nH]3)CC1)C2` [Example 18, 4-{2-[(1-tert-butyl-7-oxo-1,4,6,7-tetrahydro-1′H-spiro[indazole-5,4′-piperidin]-1′-yl)carbonyl]-1H-indol-4-yl}benzoic acid], for which the values for the IC50 in experiment [1] (setting [3]) and in experiment [2] were 4.5 nM and 14.6 nM, respectively.

On to `CC(C)n1ncc2c1C(=O)CC1(CCN(C(=O)c3cc(-c4ccc(C(=O)O)cc4)nc(N(C)C)c3)CC1)C2` [Example 33, 4-{6-(dimethylamino)-4-[(1-isopropyl-7-oxo-1,4,6,7-tetrahydro-1′H-spiro[indazole-5,4′-piperidin]-1′-yl)carbonyl]pyridin-2-yl}benzoic acid], for which the IC50 worked out at 16.3 nM in experiment [1] (setting [3]) and 8.7 nM in experiment [2].

For `CC(C)n1ncc2c1C(=O)CC1(CCN(C(=O)c3ccc(-c4ccc(C(=O)O)cc4)nc3NCC(F)(F)F)CC1)C2` [Example 42, 4-{5-[(1-isopropyl-7-oxo-1,4,6,7-tetrahydro-1′H-spiro[indazole-5,4′-piperidin]-1′-yl)carbonyl]-6-[(2,2,2-trifluoroethyl)amino]pyridin-2-yl}benzoic acid], the IC50 in experiment [1] (setting [3]) was found to be 39.9 nM; in experiment [2], 30.4 nM.

`CC(C)n1ncc2c1C(=O)CC1(CCN(C(=O)c3cc4c(-c5cccc(C(=O)O)c5)ccnc4[nH]3)CC1)C2` [Example 28, 3-{2-[(1-isopropyl-7-oxo-1,4,6,7-tetrahydro-1′H-spiro[indazole-5,4′-piperidin]-1′-yl)carbonyl]-1H-pyrrolo[2,3-b]pyridin-4-yl}benzoic acid]: the IC50 in experiment [1] (setting [3]) stood at 6.7 nM; in experiment [2] it was 5.35 nM.

As to `CNc1nc(-c2cccc(C(=O)O)c2)ccc1C(=O)N1CCC2(CC1)CC(=O)c1c(cnn1C(C)(C)C)C2` [Example 4, 3-{5-[(1-tert-butyl-7-oxo-1,4,6,7-tetrahydro-1′H-spiro[indazole-5,4′-piperidin]-1′-yl)carbonyl]-6-(methylamino)pyridin-2-yl}benzoic acid], the IC50 is 116 nM in experiment [1] (setting [3]) and 53 nM in experiment [2].

Consider `CC(C)n1ncc2c1C(=O)CC1(CCN(C(=O)c3nc4cc(-c5ccc(C(=O)O)cc5)ccc4[nH]3)CC1)C2` [Example 46, 4-{2-[(1-isopropyl-7-oxo-1,4,6,7-tetrahydro-1′H-spiro[indazole-5,4′-piperidin]-1′-yl)carbonyl]-1H-benzimidazol-5-yl}benzoic acid], for which the figures for the IC50 in experiment [1] (setting [3]) and in experiment [2] were 11.6 nM and 15.7 nM, respectively.

Consider `CC(C)(C)n1ncc2c1C(=O)CC1(CCN(C(=O)c3ccc(-c4cccc(-c5nnn[nH]5)c4)cc3)CC1)C2` [Example 49, 1-tert-butyl-1′-{[3′-(1H-tetrazol-5-yl)biphenyl-4-yl]carbonyl}-1,4-dihydrospiro[indazole-5,4′-piperidin]-7(6H)-one], for which the IC50 in experiment [1] (setting [3]) worked out at 54.7 nM; in experiment [2] it was 24.7 nM.

As for `CNc1ncc(-c2ccc(C(=O)O)cc2)cc1C(=O)N1CCC2(CC1)CC(=O)c1c(cnn1C(C)C)C2` [Example 44, 4-{5-[(1-isopropyl-7-oxo-1,4,6,7-tetrahydro-1′H-spiro[indazole-5,4′-piperidin]-1′-yl)carbonyl]-6-(methylamino)pyridin-3-yl}benzoic acid], the IC50 in experiment [1] (setting [3]) is 34.4 nM; in experiment [2] it was 35.9 nM.

With `CC(C)n1ncc2c1C(=O)CC1(CCN(C(=O)c3cc(-c4ccc(C(=O)O)cc4)[nH]c(=O)c3)CC1)C2` [Example 27, 4-{4-[(1-isopropyl-7-oxo-1,4,6,7-tetrahydro-1′H-spiro[indazole-5,4′-piperidin]-1′-yl)carbonyl]-6-oxo-1,6-dihydropyridin-2-yl}benzoic acid], the results for the IC50 in experiment [1] (setting [3]) and in experiment [2] were 2910 nM and 1140 nM, respectively.

With `CC(C)n1ncc2c1C(=O)CC1(CCN(C(=O)c3cc4c(-c5cccc(C(=O)O)c5)cccc4[nH]3)CC1)C2` [Example 15, 3-{2-[(1-isopropyl-7-oxo-1,4,6,7-tetrahydro-1′H-spiro[indazole-5,4′-piperidin]-1′-yl)carbonyl]-1H-indol-4-yl}benzoic acid], the IC50 is 6.11 nM in experiment [1] (setting [3]) and 7.88 nM in experiment [2].
